# Columns and labels:
# PRMT5 [1] = target: T1, PRMT5 (Homo sapiens, UniProt O14744); assay: PRMT5 biochemical IC50 assay with SAM as cofactor; conditions: PRMT5, SAM as cofactor; read-out: SAM IC50
# T1 construct: purchased Viva (custom protein)
# PRMT5 [2] = target: T1, PRMT5; assay: PRMT5 biochemical IC50 assay with no cofactor; conditions: PRMT5, no cofactor
# Source text: Table 1 indicates IC50 values (μM) against PRMT5 for exemplary compounds in the presence of SAM as cofactor, with no cofactor, and with MTA as cofactor, respectively (columns 4-6). […] Ki values can be calculated from the IC50 values as described in the Examples section. As detailed in the Examples section, for the assay performed in the presence of SAM, IC50=Ki×1.5 (Ki=IC50/1.5).
# PRMT5 [3] = target: T1, PRMT5; assay: PRMT5 biochemical IC50 assay with MTA as cofactor; conditions: PRMT5, MTA as cofactor; read-out: MTA IC50
# [4] = system: HAP1 MTAP-intact cell line; assay: SDMA in-cell western assay, HAP1 MTAP-intact; assay type: cell-based; conditions: Homo sapiens, HAP1, SDMA in-cell western, HAP1 MTAP-intact; read-out: MTAP HAP1 intact IC50
# Method in brief: (§1)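 MTAP-null vs endogenous-MTAP HAP1 isogenic cells; in-cell western SDMA readout; IC50 per line.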
# [5] = system: HAP1 MTAP-deleted cell line; assay: SDMA in-cell western assay, HAP1 MTAP-deleted; assay type: cell-based; conditions: for IC50: Homo sapiens, HAP1, SDMA in-cell western, HAP1 MTAP-deleted; for MTAP intact/deleted ratio: SDMA in-cell western
# Method in brief: as §1
# [6] = system: HAP1 MTAP-deleted cell line; assay: Viability assay, MTAP-deleted cell line; assay type: cell-based; conditions: Homo sapiens, read-out: HAP1 MTAP deleted viability
# Source text: Table 1 additionally indicates IC50 values in a viability assay for the MTAP-deleted cell line (column 10), indicating the effect of treatment with compound on cell survival.
# [7] = read-out: HAP 1 MTAP deleted IC50
# [8] = IC50 ratio HAP1 MTAP-intact / HAP1 MTAP-deleted
# [9] = HAP1, viability assay, MTAP-deleted cell line
# [10] = read-out: HAP1 MTAP deleted IC50
# [11] = read-out: No Cofactor/ rel IC50
# [12] = HAP1, viability, HAP1 MTAP-deleted cell line
# [13] = HAP1, viability IC50, MTAP-deleted cell line
# T1 sequence (O14744 whole entry): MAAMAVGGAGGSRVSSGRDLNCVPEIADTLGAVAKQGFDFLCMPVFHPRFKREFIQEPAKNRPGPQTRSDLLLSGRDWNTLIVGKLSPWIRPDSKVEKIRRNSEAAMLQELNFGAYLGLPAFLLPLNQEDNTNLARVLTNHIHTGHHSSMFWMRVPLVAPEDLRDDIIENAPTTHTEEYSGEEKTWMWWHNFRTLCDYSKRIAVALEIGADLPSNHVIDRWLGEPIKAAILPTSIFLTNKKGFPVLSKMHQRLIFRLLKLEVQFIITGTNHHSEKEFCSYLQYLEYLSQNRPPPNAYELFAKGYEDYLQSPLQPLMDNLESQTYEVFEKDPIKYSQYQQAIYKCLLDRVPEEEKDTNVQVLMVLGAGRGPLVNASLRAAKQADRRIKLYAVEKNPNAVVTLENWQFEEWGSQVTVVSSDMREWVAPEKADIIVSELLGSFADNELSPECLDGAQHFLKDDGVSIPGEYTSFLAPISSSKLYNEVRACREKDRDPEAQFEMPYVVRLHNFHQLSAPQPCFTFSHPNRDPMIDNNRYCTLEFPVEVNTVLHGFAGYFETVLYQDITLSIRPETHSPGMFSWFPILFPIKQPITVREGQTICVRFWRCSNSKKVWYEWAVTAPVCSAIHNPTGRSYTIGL
# T1 sequence (Q9BQA1 whole entry partner): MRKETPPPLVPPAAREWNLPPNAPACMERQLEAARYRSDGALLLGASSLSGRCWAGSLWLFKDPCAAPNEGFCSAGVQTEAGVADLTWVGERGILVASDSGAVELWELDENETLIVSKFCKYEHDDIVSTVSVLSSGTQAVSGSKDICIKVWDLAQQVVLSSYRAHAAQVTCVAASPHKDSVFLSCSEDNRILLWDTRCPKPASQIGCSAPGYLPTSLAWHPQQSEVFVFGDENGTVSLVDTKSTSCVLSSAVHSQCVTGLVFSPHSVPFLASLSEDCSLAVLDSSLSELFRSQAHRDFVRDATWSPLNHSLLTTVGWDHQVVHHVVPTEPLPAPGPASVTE
Structure (SMILES),IC50 (PRMT5 [1]),IC50 (PRMT5 [2]; read-out: No Cofactor/rel IC50),IC50 (PRMT5 [3]),IC50 [4],"IC50 [5, 7]","MTAP intact/deleted ratio [5, 8]","IC50 [6, 9]","IC50 [5, 10]",IC50 (PRMT5 [2]; [11]),"IC50 [6, 12]",MTAP intact/deleted ratio ([5]; IC50 ratio HAP1 MTAP-intact vs HAP1 MTAP-deleted),"IC50 [6, 13]","IC50 ([6]; HAP1, viability assay, HAP1 MTAP-deleted)"
"Cc1ncc(NC(=O)C(=O)N2C[C@@H](C)CC[C@@H]2c2ccc3c(c2)CCC(=O)N3)cc1C(F)F (single isomer, unassigned) [Compound 903]",> 500 nM,> 500 nM,> 500 nM,> 1000 nM,> 1000 nM,B (an IC50 ratio greater than or equal to 3 fold but lower than 10 fold),> 10000 nM,–,–,–,–,–,–
"C[C@@H]1CC[C@@H](c2ccc(C#N)c(C3CC3)c2)N(C(=O)C(=O)Nc2cncc(C(N)=O)c2)C1 (racemic) [Compound 244, rac-5-{2-[(2R,5S)-2-(4-Cyano-3-cyclopropylphenyl)-5-methylpiperidin-1-yl]-2-oxoacetamido}pyridine-3-carboxamide]",50 to 500 nM,50 to 500 nM,< 50 nM,> 1000 nM,–,A (an IC50 ratio greater than or equal to 10 fold),1000 to 10000 nM,< 100 nM,–,–,–,–,–
"CCc1cc(NC(=O)C(=O)N2C[C@@H](C)CC[C@@H]2c2ccc(N3CCN(C)C[C@H]3C)nc2)cnc1N [Compound 1294, N-(6-amino-5-ethyl-3-pyridyl)-2-[(2R,5S)-2-[6-[(2R)-2,4-dimethylpiperazin-1-yl]-3-pyridyl]-5-methyl-1-piperidyl]-2-oxo-acetamide]",50 to 500 nM,–,< 50 nM,100 to 1000 nM,< 100 nM,A (an IC50 ratio greater than or equal to 10 fold),–,–,< 50 nM,< 1000 nM,–,–,–
"C[C@H]1CC[C@@H](c2cccnc2)N(C(=O)C(=O)Nc2cncc(C(N)=O)c2)C1 (single isomer, unassigned) [Compound 104]",50 to 500 nM,–,50 to 500 nM,> 1000 nM,> 1000 nM,B (an IC50 ratio greater than or equal to 3 fold but lower than 10 fold),> 10000 nM,–,> 500 nM,–,–,–,–
"Cc1cncc(NC(=O)C(=O)N2C[C@@H](C)CC[C@@H]2c2cccc(C)c2)c1 (single isomer, unassigned) [Compound 11]",> 500 nM,–,> 500 nM,> 1000 nM,> 1000 nM,C (an IC50 ratio of less than 3 fold),> 10000 nM,–,> 500 nM,–,–,–,–
"CCc1cc(NC(=O)C(=O)N2C[C@@H](C)CC[C@@H]2c2ccc(N3CCN(CC)CC3)cc2)cnc1N (single isomer, unassigned) [Compound 1360]",> 500 nM,–,> 500 nM,> 1000 nM,> 1000 nM,–,–,–,> 500 nM,> 10000 nM,–,–,–
"COc1ncc(NC(=O)C(=O)N2CCCCC2c2ccccc2)cc1C(N)=O (stereo not shown) [Compound 138, 2-methoxy-5-(2-oxo-2-(2-phenylpiperidin-1-yl)acetamido)nicotinamide]",50 to 500 nM,–,< 50 nM,> 1000 nM,100 to 1000 nM,A (an IC50 ratio greater than or equal to 10 fold),> 10000 nM,–,> 500 nM,–,–,–,–
"C[C@H]1CC[C@H](c2ccc3c(c2)C[C@@H](C)O3)N(C(=O)C(=O)Nc2cncc(C(N)=O)c2)C1 (single isomer, unassigned) [Compound 377]",> 500 nM,> 500 nM,> 500 nM,> 1000 nM,–,C (an IC50 ratio of less than 3 fold),> 10000 nM,> 1000 nM,–,–,–,–,–
"C[C@@H]1CC[C@@H](c2ccnn2C)N(C(=O)C(=O)Nc2cncc(C(N)=O)c2)C1 (racemic) [Compound 81, 5-(2-(5-methyl-2-(1-methyl-1H-pyrazol-5-yl)piperidin-1-yl)-2-oxoacetamido)nicotinamide]",> 500 nM,–,50 to 500 nM,> 1000 nM,100 to 1000 nM,A (an IC50 ratio greater than or equal to 10 fold),> 10000 nM,–,> 500 nM,–,–,–,–
"Cc1cc(NC(=O)C(=O)N2C[C@@H](C)CC[C@@H]2c2ccc3sc(-c4nccn4C)nc3c2)cnc1N [Compound 1186, N-(6-amino-5-methylpyridin-3-yl)-2-((2R,5S)-5-methyl-2-(2-(1-methyl-1H-imidazol-2-yl)benzo[d]thiazol-5-yl)piperidin-1-yl)-2-oxoacetamide]",50 to 500 nM,< 50 nM,< 50 nM,< 100 nM,–,–,< 1000 nM,< 100 nM,–,–,A (an IC50 ratio greater than or equal to 10 fold),–,–
"Cc1cc(NC(=O)C(=O)N2C[C@@H](C)CC[C@@H]2c2cc(Cl)cc(Cl)c2)cnc1N (single isomer, unassigned) [Compound 660]",> 500 nM,> 500 nM,50 to 500 nM,> 1000 nM,> 1000 nM,B (an IC50 ratio greater than or equal to 3 fold but lower than 10 fold),–,–,–,–,–,> 10000 nM,–
"Cc1cc(NC(=O)C(=O)N2C[C@@H](C)CC[C@@H]2c2ccc3c(c2)CNC3=O)cnc1N (single isomer, unassigned) [Compound 591]",> 500 nM,> 500 nM,> 500 nM,> 1000 nM,> 1000 nM,C (an IC50 ratio of less than 3 fold),–,–,–,–,–,> 10000 nM,–
"COc1ncc(NC(=O)C(=O)N2C[C@@H](C)[C@@H](OC)C[C@@H]2c2ccc3scnc3c2)cc1C(N)=O (single isomer, unassigned) [Compound 1344]",> 500 nM,–,> 500 nM,> 1000 nM,100 to 1000 nM,–,–,–,> 500 nM,1000 to 10000 nM,–,–,–
"C[C@@H]1CC[C@@H](c2ccc(NS(C)(=O)=O)cc2)N(C(=O)C(=O)Nc2cncc(C(N)=O)c2)C1 (single isomer, unassigned) [Compound 469]",> 500 nM,> 500 nM,> 500 nM,> 1000 nM,–,C (an IC50 ratio of less than 3 fold),> 10000 nM,> 1000 nM,–,–,–,–,–
"CCc1cc(NC(=O)C(=O)N2C[C@@H](C)CC[C@@H]2c2ccc(N3CCOC4(CN(C)C4)C3)cc2)cnc1N (racemic) [Compound 1329, rac-N-(6-Amino-5-ethyl-3-pyridyl)-2-[(2R,5S)-5-methyl-2-[4-(2-methyl-5-oxa-2,8-diazaspiro[3.5]nonan-8-yl)phenyl]-1-piperidyl]-2-oxo-acetamide]",50 to 500 nM,–,50 to 500 nM,> 1000 nM,< 100 nM,–,–,–,50 to 500 nM,< 1000 nM,–,–,–
"COc1ncc(NC(=O)C(=O)N2C[C@@H](C)CC[C@@H]2c2ccc(NS(C)(=O)=O)cc2)cc1C(N)=O (single isomer, unassigned) [Compound 850]",> 500 nM,> 500 nM,> 500 nM,> 1000 nM,–,C (an IC50 ratio of less than 3 fold),–,> 1000 nM,–,–,–,–,> 10000 nM
"Cc1cc(NC(=O)C(=O)N2C[C@H](C)CC[C@@H]2c2ccnn2C)cnc1N (racemic) [Compound 66, rac-N-(6-amino-5-methylpyridin-3-yl)-2-((2R,5R)-5-methyl-2-(1-methyl-1H-pyrazol-5-yl)piperidin-1-yl)-2-oxoacetamide]",50 to 500 nM,–,< 50 nM,> 1000 nM,100 to 1000 nM,A (an IC50 ratio greater than or equal to 10 fold),> 10000 nM,–,50 to 500 nM,–,–,–,–
"Cc1ccc([C@@H]2CC[C@@H](C)CN2C(=O)C(=O)Nc2cncc(C(N)=O)c2)cn1 (single isomer, unassigned) [Compound 654]",50 to 500 nM,50 to 500 nM,< 50 nM,> 1000 nM,100 to 1000 nM,A (an IC50 ratio greater than or equal to 10 fold),–,–,–,–,–,1000 to 10000 nM,–
"C[C@@H]1CC[C@@H](c2ccc(N[C@@H]3CCN(C)C3=O)cc2)N(C(=O)C(=O)Nc2cncc(C(N)=O)c2)C1 (racemic) [Compound 430, 5-[[2-[(2S,5R)-5-Methyl-2-[4-[[(3R)-1-methyl-2-oxo-pyrrolidin-3-yl]amino]phenyl]-1-piperidyl]-2-oxo-acetyl]amino]pyridine-3-carboxamide]",50 to 500 nM,50 to 500 nM,50 to 500 nM,> 1000 nM,–,A (an IC50 ratio greater than or equal to 10 fold),1000 to 10000 nM,< 100 nM,–,–,–,–,–

# Source: patent publication US11999727B2 (Tango Therapeutics, Inc., priority 2020, dated 2024)
